The NIST ThermoML archive (doi:10.1016/j.fluid.2014.03.019)
± gives the expanded uncertainty stated by the source.

Columns and labels:
[1] = wn = mass fraction of the nth substance listed; settings: Liquid, Vibrating tube method
[2] = refractive index (Na D-line) (dimensionless); wn = mass fraction of the nth substance listed; settings: Liquid, Standard Abbe refractometry

Row | mass density ([1]; 288.15 K, w1 = 0.0187) [kg/m3] | mass density ([1]; 298.15 K, w1 = 0.0336) [kg/m3] | refractive index ([2]; 288.15 K, w1 = 0.0187) | refractive index ([2]; 298.15 K, w1 = 0.0336) | mass density ([1]; 288.15 K, w1 = 0.2596) [kg/m3] | mass density ([1]; 298.15 K, w1 = 0.2561) [kg/m3] | refractive index ([2]; 288.15 K, w1 = 0.2596) | refractive index ([2]; 298.15 K, w1 = 0.2561) | Compound
1 | 1023.17 ± 0.34 | 1035.63 ± 0.26 | 1.341 ± 0.0005 | 1.3452 ± 0.0004 |  |  |  |  | O=B[O-].[Li+] [lithium metaborate] + O
2 |  |  |  |  | 1246.65 ± 1.8 | 1245.02 ± 2.7 | 1.3788 ± 0.0005 | 1.3771 ± 0.0006 | O=S(=O)([O-])[O-].[Li+].[Li+] [lithium sulfate] + O
